Assay results from patent US20230233569A1 (Revolution Medicines, Inc., priority 2020, published 2023).

How the values were obtained:
[1] = system: P70S6K (Thr389) phosphorylation (mTORC1) in MDA-MB-468 cells; assay: Cell based AlphaLISA assay, mTOR kinase cellular assay: inhibition of p-P70S6K (T389) in MDA-MB-468 cells; conditions: Homo sapiens, read-out: pIC50 for Inhibition of mTORC1 and mTORC2 Substarte Phosphorylation p-P70S6K-(T389) (converted)
Method: (§1) Cell Based AlphaLISA Assays for Determining IC50 For Inhibition of P-Akt (S473), P-4E-BP1 (T37/46), and P-P70S6K (T389) in MDA-MB-468 Cells
(§2) mTOR Kinase Cellular Assay
(§3) To measure functional activity of mTORC1 and mTORC2 in cells the phosphorylation of 4EBP1 (Thr37/46) and P70S6K (Thr389), and AKT1/2/3 (Ser473) was monitored using AlphaLisa SureFire Ultra Kits (Perkin Elmer). MDA-MB-468 cells (ATCC® HTB-132) were cultured in 96-well tissue culture plates and treated with compounds in the disclosure at concentrations varying from 0.017-1,000 nM for two to four hours at 37° C. Incubations were terminated by removal of the assay buffer and addition of lysis buffer provided with the assay kit. Samples were processed according to the manufacturer's instructions. The Alpha signal from the respective phosphoproteins was measured in duplicate using a microplate reader (Envision, Perkin-Elmer or Spectramax M5, Molecular Devices). Inhibitor concentration response curves were analyzed using normalized IC50 regression curve fitting with control based normalization.

[2] = system: 4EBP1 (Thr37/46) phosphorylation (mTORC1) in MDA-MB-468 cells; assay: Cell based AlphaLISA assay, mTOR kinase cellular assay: inhibition of p-4E-BP1 (T37/46) in MDA-MB-468 cells; conditions: Homo sapiens, read-out: pIC50 for Inhibition of mTORC1 and mTORC2 Substarte Phosphorylation p-4E-BP1-(T37/46) (converted)
Method: as §1, §2, §3

[3] = system: AKT1/2/3 (Ser473) phosphorylation (mTORC2) in MDA-MB-468 cells; assay: Cell based AlphaLISA assay, mTOR kinase cellular assay: inhibition of p-Akt (S473) in MDA-MB-468 cells; conditions: Homo sapiens, read-out: pIC50 for Inhibition of mTORC1 and mTORC2 Substarte Phosphorylation p-AKT1/2/3-(S473) (converted)
Method: as §1, §2, §3

AsPC-1 (K-Ras G12D) [4] = assay: Potency assay: pERK; format: cell-based; conditions: Homo sapiens, ASPC1, read-out: pERK EC50
AsPC-1 (K-Ras G12D) [5] = assay: CellTiter-Glo cell viability assay; format: cell-based; conditions: Homo sapiens, ASPC1, 120 h, read-out: AsPC-1 Cell Viability assay data IC50, K-Ras G12D, 5-day treatment
Summary of the method: (§4)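 Compounds dispensed directly onto seeded AsPC-1 (K-Ras G12D) or NCI-H358 (K-Ras G12C) cells; CellTiter-Glo luminescence read on day 5 after ~30 min equilibration to room temperature. Signal normalized to DMSO average (%) and fit by four-parameter logistic.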

NCI-H358 (K-Ras G12C) = assay: CellTiter-Glo cell viability assay; format: cell-based; conditions: Homo sapiens, NCI-H358, 120 h, read-out: H358 Cell Viability assay data IC50, K-Ras G12C, 5-day treatment
Summary of the method: as §4

KRAS G12D = KRAS G12D (Homo sapiens, UniProt P01116+P62937, G12D); assay: Ras-Raf disruption / FRET / MOA assay (BRAF RBD); format: biochemical; conditions: KRAS G12D FRET data IC50, Ras-Raf disruption, with Cyclophilin A
Summary of the method: (§5)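 TR-FRET in 25 mM HEPES pH 7.3, 100 mM NaCl, 5 mM MgCl2, 0.1% BSA, 0.002% Tween20 with 25 μM Cyclophilin A, 12.5 nM His6-Ras-GMPPNP, 50 nM GST-BRAF RBD; compound 10-point 3-fold series from 30 μM. After 3 h at 25 °C, Eu anti-His/APC anti-GST added for 1.5 h; IC50 from ratio decrease versus DMSO.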

KRAS G12S = KRAS G12S (Homo sapiens, UniProt P01116+P62937, G12S); assay: Ras-Raf disruption / FRET / MOA assay (BRAF RBD); format: biochemical; conditions: KRAS G12S FRET data IC50, Ras-Raf disruption, with Cyclophilin A
Summary of the method: as §5

KRAS G12V = KRAS G12V (Homo sapiens, UniProt P01116+P62937, G12V); assay: Ras-Raf disruption / FRET / MOA assay (BRAF RBD); format: biochemical; conditions: KRAS G12V FRET data IC50, Ras-Raf disruption, with Cyclophilin A
Summary of the method: as §5

KRAS G13C = KRAS G13C (Homo sapiens, UniProt P01116+P62937, G13C); assay: Ras-Raf disruption / FRET / MOA assay (BRAF RBD); format: biochemical; conditions: KRAS G13C FRET data IC50, Ras-Raf disruption, with Cyclophilin A
Summary of the method: as §5

KRAS G13D = KRAS G13D (Homo sapiens, UniProt P01116+P62937, G13D); assay: Ras-Raf disruption / FRET / MOA assay (BRAF RBD); format: biochemical; conditions: KRAS G13D FRET data IC50, Ras-Raf disruption, with Cyclophilin A
Summary of the method: as §5

KRAS Q61H = KRAS Q61H (Homo sapiens, UniProt P01116+P62937, Q61H); assay: Ras-Raf disruption / FRET / MOA assay (BRAF RBD); format: biochemical
Summary of the method: as §5

KRAS WT = KRAS WT (Homo sapiens, UniProt P01116+P62937); assay: Ras-Raf disruption / FRET / MOA assay (BRAF RBD); format: biochemical; conditions: KRAS WT FRET data IC50, Ras-Raf disruption, with Cyclophilin A
Summary of the method: as §5

NRAS G12C = NRAS G12C (Homo sapiens, UniProt P01111+P62937, G12C); assay: Ras-Raf disruption / FRET / MOA assay (BRAF RBD); format: biochemical; conditions: NRAS G12C FRET data IC50, NRAS G12C
Summary of the method: as §5

NRAS Q61K = NRAS Q61K (Homo sapiens, UniProt P01111+P62937, Q61K); assay: Ras-Raf disruption / FRET / MOA assay (BRAF RBD); format: biochemical
Summary of the method: as §5

NRAS Q61R = NRAS Q61R (Homo sapiens, UniProt P01111+P62937, Q61R); assay: Ras-Raf disruption / FRET / MOA assay (BRAF RBD); format: biochemical
Summary of the method: as §5

NRAS WT = NRAS WT (Homo sapiens, UniProt P01111+P62937); assay: Ras-Raf disruption / FRET / MOA assay (BRAF RBD); format: biochemical
Summary of the method: as §5

KRAS G12C = KRAS G12C (Homo sapiens, UniProt P01116+P62937, G12C); assay: Ras-Raf disruption / FRET / MOA assay (BRAF RBD); format: biochemical; conditions: KRAS G12C FRET data IC50, Ras-Raf disruption, with Cyclophilin A
Summary of the method: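 His6-K-Ras G12C-GMPPNP (12.5 nM), GST-BRAF RBD (50 nM) and tagless Cyclophilin A (25 μM) incubated 3 h at 25 °C with compound (10-point 3-fold series from 30 μM), pH 7.3 HEPES buffer. Anti-His Eu/anti-GST APC added for 1.5 h; decreased TR-FRET ratio vs DMSO gives IC50.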

KRAS G12C, sequence (P01116 1-169 isoform P01116-2 G12C limits assumed): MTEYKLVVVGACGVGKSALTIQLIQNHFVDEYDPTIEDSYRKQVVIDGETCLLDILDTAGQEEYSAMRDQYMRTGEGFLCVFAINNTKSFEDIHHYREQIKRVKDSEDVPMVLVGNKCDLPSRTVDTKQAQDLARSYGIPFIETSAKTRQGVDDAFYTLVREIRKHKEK
KRAS G12C, sequence (P62937 whole entry): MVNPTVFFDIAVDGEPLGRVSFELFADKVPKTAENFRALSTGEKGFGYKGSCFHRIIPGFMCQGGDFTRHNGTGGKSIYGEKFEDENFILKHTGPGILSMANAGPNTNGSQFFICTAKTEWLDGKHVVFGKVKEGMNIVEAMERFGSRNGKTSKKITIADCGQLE
KRAS G13D, sequence (P01116 1-169 isoform P01116-2 G13D limits assumed): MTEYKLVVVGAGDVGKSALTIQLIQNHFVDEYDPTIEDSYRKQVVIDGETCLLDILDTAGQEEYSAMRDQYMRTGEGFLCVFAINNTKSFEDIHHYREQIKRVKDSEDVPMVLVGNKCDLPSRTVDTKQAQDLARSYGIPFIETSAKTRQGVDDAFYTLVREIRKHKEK
KRAS G13D, sequence (P62937 whole entry): as the sequence (P62937 whole entry) above
KRAS G12V, sequence (P01116 1-169 isoform P01116-2 G12V limits assumed): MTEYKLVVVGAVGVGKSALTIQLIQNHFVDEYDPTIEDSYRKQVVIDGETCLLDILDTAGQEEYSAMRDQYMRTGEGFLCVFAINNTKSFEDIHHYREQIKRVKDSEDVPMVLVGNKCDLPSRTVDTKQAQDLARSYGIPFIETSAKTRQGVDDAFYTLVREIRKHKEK
KRAS G12V, sequence (P62937 whole entry): as the sequence (P62937 whole entry) above
NRAS G12C, sequence (P01111 whole entry G12C): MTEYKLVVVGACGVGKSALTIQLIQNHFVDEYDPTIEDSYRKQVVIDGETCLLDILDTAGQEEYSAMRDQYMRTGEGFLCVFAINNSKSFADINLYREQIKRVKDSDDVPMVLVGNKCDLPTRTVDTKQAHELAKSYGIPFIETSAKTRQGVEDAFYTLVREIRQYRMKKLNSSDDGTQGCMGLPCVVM
NRAS G12C, sequence (P62937 whole entry): as the sequence (P62937 whole entry) above
KRAS WT, sequence (P01116 1-169 isoform P01116-2 limits assumed): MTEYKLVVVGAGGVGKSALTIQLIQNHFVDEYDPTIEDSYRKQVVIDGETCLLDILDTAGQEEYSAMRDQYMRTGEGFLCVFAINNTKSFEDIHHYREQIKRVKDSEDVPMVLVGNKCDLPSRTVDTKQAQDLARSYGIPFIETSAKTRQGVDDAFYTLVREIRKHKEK
KRAS WT, sequence (P62937 whole entry): as the sequence (P62937 whole entry) above
KRAS Q61H, sequence (P01116 1-169 isoform P01116-2 Q61H limits assumed): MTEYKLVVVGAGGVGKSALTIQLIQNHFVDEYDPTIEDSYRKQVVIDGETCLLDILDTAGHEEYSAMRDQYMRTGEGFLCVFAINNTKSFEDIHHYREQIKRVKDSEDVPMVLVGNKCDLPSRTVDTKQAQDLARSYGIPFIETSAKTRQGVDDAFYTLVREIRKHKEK
KRAS Q61H, sequence (P62937 whole entry): as the sequence (P62937 whole entry) above
KRAS G12S, sequence (P01116 1-169 isoform P01116-2 G12S limits assumed): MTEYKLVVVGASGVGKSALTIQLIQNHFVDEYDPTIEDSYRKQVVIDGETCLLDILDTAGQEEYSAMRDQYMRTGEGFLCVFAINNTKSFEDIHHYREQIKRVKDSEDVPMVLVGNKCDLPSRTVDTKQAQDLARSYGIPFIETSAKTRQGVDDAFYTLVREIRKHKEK
KRAS G12S, sequence (P62937 whole entry): as the sequence (P62937 whole entry) above
NRAS Q61K, sequence (P01111 whole entry Q61K): as the sequence (P01111 whole entry G12C) above, with C12G, Q61K counted along it
NRAS Q61K, sequence (P62937 whole entry): as the sequence (P62937 whole entry) above
KRAS G12D, sequence (P01116 1-169 isoform P01116-2 G12D limits assumed): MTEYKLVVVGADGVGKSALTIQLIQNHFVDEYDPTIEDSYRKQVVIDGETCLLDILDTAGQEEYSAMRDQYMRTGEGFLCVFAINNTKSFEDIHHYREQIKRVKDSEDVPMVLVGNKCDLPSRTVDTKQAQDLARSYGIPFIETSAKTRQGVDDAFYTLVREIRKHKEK
KRAS G12D, sequence (P62937 whole entry): as the sequence (P62937 whole entry) above
KRAS G13C, sequence (P01116 1-169 isoform P01116-2 G13C limits assumed): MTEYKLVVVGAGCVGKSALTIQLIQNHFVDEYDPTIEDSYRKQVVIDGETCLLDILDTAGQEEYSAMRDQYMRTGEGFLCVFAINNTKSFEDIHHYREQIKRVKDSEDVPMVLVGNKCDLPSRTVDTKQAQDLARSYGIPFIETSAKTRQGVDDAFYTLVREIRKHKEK
KRAS G13C, sequence (P62937 whole entry): as the sequence (P62937 whole entry) above
NRAS WT, sequence (P01111 whole entry): as the sequence (P01111 whole entry G12C) above, with C12G counted along it
NRAS WT, sequence (P62937 whole entry): as the sequence (P62937 whole entry) above
NRAS Q61R, sequence (P01111 whole entry Q61R): as the sequence (P01111 whole entry G12C) above, with C12G, Q61R counted along it
NRAS Q61R, sequence (P62937 whole entry): as the sequence (P62937 whole entry) above

Compound	IC50 [1] [nM]	IC50 [2] [nM]	IC50 [3] [nM]	also measured
CO[C@H]1C[C@@H]2CC[C@@H](C)[C@@](O)(O2)C(=O)C(=O)N2CCCC[C@H]2C(=O)O[C@H]([C@H](C)C[C@@H]2CC[C@@H](OC(=O)NCCOCCOCCOCCOCCOCCOCCOCCOCCC(=O)N3CCc4cc(Cn5nc(-c6ccc7oc(N)nc7c6)c6c(N)ncnc65)ccc4C3)[C@H](OC)C2)CC(=O)[C@H](C)/C=C(\C)[C@@H](O)[C@@H](OC)C(=O)[C@H](C)C[C@H](C)/C=C/C=C/C=C/1C [Example 2]	≤ 1	≤ 3.16	3.16 to 31.6	–
CO[C@H]1C[C@@H]2CC[C@@H](C)[C@@](O)(O2)C(=O)C(=O)N2CCCC[C@H]2C(=O)O[C@H]([C@H](C)C[C@@H]2CC[C@@H](OC(=O)NCCOCCOCCOCCOCCC(=O)NCCOCCOCCOCCOCCC(=O)N3CCc4cc(Cn5nc(-c6ccc7oc(N)nc7c6)c6c(N)ncnc65)ccc4C3)[C@H](OC)C2)CC(=O)[C@H](C)/C=C(\C)[C@@H](O)[C@@H](OC)C(=O)[C@H](C)C[C@H](C)/C=C/C=C/C=C/1C [Example 15]	≤ 1	≤ 3.16	3.16 to 31.6	–
CO[C@H]1C[C@@H]2CC[C@@H](C)[C@@](O)(O2)C(=O)C(=O)N2CCCC[C@H]2C(=O)O[C@H]([C@H](C)C[C@@H]2CC[C@@H](OC(=O)NCCOCCOCCOCCOCCC(=O)NCCOCCOCCOCCOCCC(=O)N3CCc4cc(Cn5nc(-c6ccc7oc(N)nc7c6)c6c(N)ncnc65)ccc4C3)[C@H](OC)C2)C[C@@H](O)[C@H](C)/C=C(\C)[C@@H](O)[C@@H](OC)C(=O)[C@H](C)C[C@H](C)/C=C/C=C/C=C/1C [Example 16]	≤ 1	≤ 3.16	≤ 3.16	–
CO[C@H]1C[C@@H]2CC[C@@H](C)[C@@](O)(O2)C(=O)C(=O)N2CCCC[C@H]2C(=O)O[C@H]([C@H](C)C[C@@H]2CC[C@@H](OC(=O)NCCOCCOCCOCCOCCC(=O)NCCOCCOCCOCCOCCC(=O)N3CCc4cc(Cn5nc(-c6ccc7oc(N)nc7c6)c6c(N)ncnc65)ccc4C3)[C@H](OC)C2)C[C@@H](OC)[C@H](C)/C=C(\C)[C@@H](O)[C@@H](OC)C(=O)[C@H](C)C[C@H](C)/C=C/C=C/C=C/1C [Example 17]	≤ 1	≤ 3.16	3.16 to 31.6	–
CO[C@H]1C[C@@H]2CC[C@@H](C)[C@@](O)(O2)C(=O)C(=O)N2CCCC[C@H]2C(=O)O[C@H]([C@H](C)C[C@@H]2CC[C@@H](OC(=O)NCCOCCOCCOCCOCCC(=O)NCCOCCOCCOCCOCCC(=O)NCCCCn3nc(-c4cnc5[nH]ccc5c4)c4c(N)ncnc43)[C@H](OC)C2)CC(=O)[C@H](C)/C=C(\C)[C@@H](O)[C@@H](OC)C(=O)[C@H](C)C[C@H](C)/C=C/C=C/C=C/1C [Example 18]	≤ 1	3.16 to 31.6	31.6 to 1000	–
CO[C@H]1C[C@@H]2CC[C@@H](C)[C@@](O)(O2)C(=O)C(=O)N2CCCC[C@H]2C(=O)O[C@H]([C@H](C)C[C@@H]2CC[C@@H](OC(=O)NCCOCCOCCOCCOCCOCCOCCOCCOCCC(=O)N3CCC(n4nc(-c5ccc6oc(N)nc6c5)c5c(N)ncnc54)CC3)[C@H](OC)C2)CC(=O)[C@H](C)/C=C(\C)[C@@H](O)[C@@H](OC)C(=O)[C@H](C)C[C@H](C)/C=C/C=C/C=C/1C [Example 19]	≤ 1	≤ 3.16	≤ 3.16	–
CO[C@H]1C[C@@H]2CC[C@@H](C)[C@@](O)(O2)C(=O)C(=O)N2CCCC[C@H]2C(=O)O[C@H]([C@H](C)C[C@@H]2CC[C@@H](OC(=O)NCCOCCOCCOCCOCCOCCOCCOCCOCCOCCOCCC(=O)N3CCC(n4nc(-c5cnc6[nH]ccc6c5)c5c(N)ncnc54)CC3)[C@H](OC)C2)CC(=O)[C@H](C)/C=C(\C)[C@@H](O)[C@@H](OC)C(=O)[C@H](C)C[C@H](C)/C=C/C=C/C=C/1C [Example 20]	≤ 1	≤ 3.16	≤ 3.16	–
CO[C@H]1C[C@@H]2CC[C@@H](C)[C@@](O)(O2)C(=O)C(=O)N2CCCC[C@H]2C(=O)O[C@H]([C@H](C)C[C@@H]2CC[C@@H](OC(=O)NCc3cnc(N4CCN(C(=O)CCOCCN5CCN(c6ncc(C(=O)N7CCc8cc(Cn9nc(-c%10cnc%11[nH]ccc%11c%10)c%10c(N)ncnc%109)ccc8C7)cn6)CC5)CC4)nc3)[C@H](OC)C2)CC(=O)[C@H](C)/C=C(\C)[C@@H](O)[C@@H](OC)C(=O)[C@H](C)C[C@H](C)/C=C/C=C/C=C/1C [Example 52]	≤ 1	≤ 3.16	–	–
CO[C@H]1C[C@@H]2CC[C@@H](C)[C@@](O)(O2)C(=O)C(=O)N2CCCC[C@H]2C(=O)O[C@H]([C@H](C)C[C@@H]2CC[C@@H](OC(=O)NCc3cnc(N4CCN(c5ncc(C(=O)N6CCN(c7ncc(C(=O)N8CCc9cc(Cn%10nc(-c%11cnc%12[nH]ccc%12c%11)c%11c(N)ncnc%11%10)ccc9C8)cn7)CC6)cn5)CC4)nc3)[C@H](OC)C2)CC(=O)[C@H](C)/C=C(\C)[C@@H](O)[C@@H](OC)C(=O)[C@H](C)C[C@H](C)/C=C/C=C/C=C/1C [Example 61]	≤ 1	–	> 1000	–
CCn1c(-c2cccnc2[C@H](C)OC)c2c3cc(ccc31)-c1cc(O)cc(c1)C[C@H](NC(=O)[C@H](C(C)C)N(C)C(=O)CN(C)C(=O)[C@H]1N[C@H]1C1CCC1)C(=O)N1CCC[C@H](N1)C(=O)OCC(C)(C)C2 [Example 288]	–	–	–	EC50 (AsPC-1 (K-Ras G12D) [4]): < 5000 nM; IC50 (AsPC-1 (K-Ras G12D) [5]): 100 to 1000 nM; IC50 (NCI-H358 (K-Ras G12C)): 10 to 100 nM; IC50 (KRAS G12D): 100 to 1000 nM; IC50 (KRAS G12S): 10 to 100 nM; IC50 (KRAS G12V): 10 to 100 nM; IC50 (KRAS G13C): 10 to 100 nM; IC50 (KRAS G13D): 10 to 100 nM; IC50 (KRAS Q61H): 10 to 100 nM; IC50 (KRAS WT): 10 to 100 nM; IC50 (NRAS G12C): 10 to 100 nM; IC50 (NRAS Q61K): 100 to 1000 nM; IC50 (NRAS Q61R): 100 to 1000 nM; IC50 (NRAS WT): 10 to 100 nM; IC50 (KRAS G12C): 10 to 100 nM
